Data published in PubChem BioAssay (NCI).
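A five-concentration, 48-hour dose response in 96-well plates underlies each endpoint, interpolated linearly between surrounding concentrations. TGI is the concentration that stops growth completely.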

Experiments:
Assay in all cases: DTP human tumour cell line panel, 48 h
HS 578T breast = tested on: HS 578T breast
NCI-H226 lung = tested on: NCI-H226 lung
SF-268 CNS = tested on: SF-268 CNS
HCC-2998 colon = tested on: HCC-2998 colon
MCF7 breast = tested on: MCF7 breast
SNB-19 CNS = tested on: SNB-19 CNS
IGROV1 ovarian = tested on: IGROV1 ovarian
SF-295 CNS = tested on: SF-295 CNS
OVCAR-3 ovarian = tested on: OVCAR-3 ovarian
LOX IMVI melanoma = tested on: LOX IMVI melanoma
BT-549 breast = tested on: BT-549 breast
SF-539 CNS = tested on: SF-539 CNS
OVCAR-8 ovarian = tested on: OVCAR-8 ovarian
CCRF-CEM leukemia = tested on: CCRF-CEM leukemia
MDA-N = tested on: MDA-N
NCI-H23 lung = tested on: NCI-H23 lung
HOP-62 NSCLC = tested on: HOP-62 NSCLC

| Compound | TGI (HS 578T breast) [µM] | TGI (NCI-H226 lung) [µM] | TGI (SF-268 CNS) [µM] | TGI (HCC-2998 colon) [µM] | TGI (MCF7 breast) [µM] | TGI (SNB-19 CNS) [µM] | TGI (IGROV1 ovarian) [µM] | TGI (SF-295 CNS) [µM] | TGI (OVCAR-3 ovarian) [µM] | TGI (LOX IMVI melanoma) [µM] | TGI (BT-549 breast) [µM] | TGI (SF-539 CNS) [µM] | TGI (OVCAR-8 ovarian) [µM] | TGI (CCRF-CEM leukemia) [µM] | TGI (MDA-N) [µM] | TGI (NCI-H23 lung) [µM] | TGI (HOP-62 NSCLC) [µM] |
| --- | --- | --- | --- | --- | --- | --- | --- | --- | --- | --- | --- | --- | --- | --- | --- | --- | --- |
| CCn1c2ccccc2n2c(=O)c3c(c(C#N)c12)CCCC3 | > 100 | > 100 | > 100 | > 100 | > 100 | > 100 | > 100 | > 100 | > 100 | > 100 | > 100 | > 100 | > 100 | > 100 | > 100 | > 100 | – |
| COC(=O)C1=C(C(=O)OC)c2cc(OC)ccc2C(C(=S)N(C)C)S1 (stereo unspecified) | > 100 | > 100 | > 100 | > 100 | > 100 | > 100 | > 100 | > 100 | > 100 | > 100 | > 100 | – | > 100 | – | > 100 | > 100 | > 100 |
| Cc1ccc(NC(=S)N/N=C(/c2ccccc2)c2ccccn2)cc1 | 81.8 | 2.07 | 1.32 | 21 | 15.7 | 22.2 | 18.9 | 12.7 | 12.5 | 14.9 | 19.1 | 10.3 | 14 | – | 19.5 | 26.7 | 17.9 |
| NNc1nncc2n[nH]nc12 | > 100 | > 100 | > 100 | – | > 100 | > 100 | > 100 | > 100 | > 100 | – | > 100 | > 100 | > 100 | > 100 | > 100 | > 100 | > 100 |
| Cc1ccc(-c2c3nc(c(-c4ccc(C)cc4)c4ccc([nH]4)c(-c4ccc(OCC5COC(C)(C)O5)cc4)c4nc(c(-c5ccc(C)cc5)c5ccc2[nH]5)C=C4)C=C3)cc1 (stereo unspecified) | > 100 | > 31.6 | > 31.6 | > 31.6 | > 31.6 | > 31.6 | > 31.6 | > 31.6 | > 31.6 | > 31.6 | > 100 | > 31.6 | > 31.6 | – | > 31.6 | > 31.6 | > 31.6 |
| c1ccc(CSP234N5CCN2CCN3CCN4CC5)c(CSP234N5CCN2CCN3CCN4CC5)c1 | > 100 | – | > 100 | > 100 | > 100 | > 100 | > 100 | > 100 | > 100 | > 100 | > 100 | > 100 | > 100 | > 100 | 82.8 | > 100 | > 100 |
| Cc1ccccc1N=Nc1ccc(N/N=C2/CCCNC2=O)c(C)c1 | > 100 | > 100 | > 100 | > 100 | > 100 | > 100 | > 100 | > 100 | – | > 100 | > 100 | – | – | > 100 | > 100 | > 100 | > 100 |
| COc1cc(/C=C2\N=C(c3ccccc3)N(c3nc4c(OC)ccc(OC)c4s3)C2=O)ccc1O | > 100 | – | > 100 | > 100 | 33.2 | > 100 | > 100 | > 100 | > 100 | 53.2 | > 100 | > 100 | > 100 | > 100 | 62 | > 100 | > 100 |
| Cc1ccc(N=Nc2c(C)c(C#N)c(=S)n(C3OC(CO)C(O)C(O)C3O)c2C)cc1 (stereo unspecified) | > 100 | – | > 100 | 58.5 | > 100 | > 100 | > 100 | > 100 | 74.4 | 45 | 54.4 | > 100 | – | > 100 | > 100 | > 100 | 84.9 |
| O=c1c2cc(S(=O)(=O)O)ccc2nc(COc2ccc(Oc3ccc(Cl)cc3Cl)cc2)n1-c1ccc(Cl)cc1Oc1c(Cl)cccc1Cl | 76.3 | 49.6 | 35.7 | – | 45.6 | > 100 | > 100 | 56.6 | 61.1 | 32.2 | 61.1 | 33.5 | 75.1 | > 100 | 99.4 | 57.1 | > 100 |
| O=c1oc2cc(O)ccc2c(O)c1C(c1ccccc1F)c1c(O)c2ccc(O)cc2oc1=O | > 100 | > 100 | > 100 | > 100 | > 100 | > 100 | > 100 | > 100 | > 100 | > 100 | 48.4 | > 100 | > 100 | – | > 100 | > 100 | > 100 |
